Converted amounts (≈) assume the structure as drawn. The source made the active and inactive calls. No cut-off for these calls is given here.
What was measured:
Cytomegalovirus = experiment: Antiviral activity against Cytomegalovirus; format: functional, organism-based
Vaccinia virus = experiment: Antiviral activity against Vaccinia virus; format: functional, organism-based; details: Orthopoxvirus vaccinia
Cowpox virus = experiment: Antiviral activity against Cowpox virus; format: functional, organism-based
Measles morbillivirus [1] = experiment: Antiviral activity against Measles virus; format: functional, organism-based
[2] = Cytotoxicity against african green monkey CV1 cells; format: cell-based; details: Chlorocebus aethiops, CV-1
Measles morbillivirus [3] = experiment: Antiviral activity against Measles virus by neutral red assay; format: functional, organism-based

Compound	Activity (Cytomegalovirus)	Activity (Vaccinia virus)	Activity (Cowpox virus)	IC50 (Measles morbillivirus [1]) [µg/mL]	IC50 [2] [µg/mL]	IC50 (Measles morbillivirus [3]) [µg/mL]
Nc1ncnc2c1ncn2[C@@H]1CC(F)(F)[C@@H](O)[C@H]1O	Active	Active	Active			
Nc1ncnc2c1ncn2[C@@H]1C[C@H](F)[C@@H](O)[C@H]1O	inactive	inactive	inactive	14 (≈ 55.3 µM)	21 (≈ 82.9 µM)	1.2 (≈ 4.74 µM)
